The results in this text go back to patent publication US20230045902A1, “COMPOSITION FOR REINFORCING FUNCTION OF STEM CELL” (SCM LIFE SCIENCE CO., LTD., priority 2020, published 2023).

Format in all cases: cell-based
Experiment [1] deals with indoleamine 2,3-dioxygenase (IDO). Nature of the experiment: IDO expression change in mesenchymal stem cells by qRT-PCR. As to conditions: MSC treated 24 hours, Table 1 concentrations; FIG. 6. Here is the method: At 37° C. and 5% CO2 incubator, mesenchymal stem cells in storage state (stored in LN2 tank) were thawed and cultured. At this time, they were cultured in a medium (DMEM, alpha-MEM) containing 10% FBS or 4% hPL. Cells were cultured until confluence reached about 80%. After seeding the cultured mesenchymal stem cells in a 100 mm dish, a candidate material for enhancing the mesenchymal stem cell function was selected.
The selected 20 ng/ml of IL-1β and vitamin B6 and IFN-α at different concentrations were combined, and the effect was confirmed by the change in indoleamine 2,3-dioxygenase (IDO) expression. IDO is known as an immunomodulatory factor that suppresses the proliferation of immune cells such as T cells by changing tryptophan, which is essential for T cell proliferation, into kynurenine. After culturing stem cells, total RNA was isolated using TRIzol (Invitrogen), and cDNA was synthesized from total RNA using PrimeScript™ reagent Kit with gDNA Eraser (TaKaRa), followed by qRT-PCR.
The selected candidate substances and their concentration combinations are shown in Table 1, and they were treated to mesenchymal stem cells for 24 hours, and the function-enhancing effect was confirmed. […]
In general terms: Quantitative PCR measures a nucleic acid by following its amplification.

In another experiment the test system is IFN-γ. Nature of the experiment: IFN-γ secretion in PHA-activated T-cells co-cultured with treated mesenchymal stem cells (IFN-γ kit). As to conditions: MSC treated 24 hours (Table 1 concentrations), co-cultured 3 days with PHA-activated T-cells; FIG. 3. The text has this: As a control group, mesenchymal stem cells that were not treated with the test substance were used.

Experiment [2] relates to Inducible costimulatory ligand (ICOSL). Briefly: ICOSL expression change in mesenchymal stem cells by qRT-PCR. The conditions noted are these: MSC treated 24 hours, Table 1 concentrations; FIG. 4. On the procedure: Inducible costimulatory ligand (ICOSL) is known to inhibit activated T cells by inducing regulatory T cells. Since the function-enhancing effect of the mesenchymal stem cells according to the treatment with the experimental group was confirmed in Example 1.1, an experiment was performed to additionally confirm whether the treatment with the experimental group induces inflammation and immune regulation ability of the mesenchymal stem cells. After culturing stem cells as in Experimental Example 1, total RNA was isolated using TRIzol (Invitrogen), and then cDNA was synthesized from total RNA using PrimeScript™ reagent Kit with gDNA Eraser (TaKaRa) and qRT-PCR was performed. Through this, the expression change of ICOSL, which is a representative factor of inflammation and immune regulation, was confirmed, and the results are shown in FIG. 4.

Another experiment relates to Galectin 1. Briefly: Galectin 1 expression change in mesenchymal stem cells by qRT-PCR. The conditions noted are these: MSC treated 24 hours, Table 1 concentrations; FIG. 5. The text has this: 1.3. Confirmation of Change in Galectin 1 Expression According to the Treatment with the Experimental Group Galectin 1 is known as a stem cell potency marker closely related to the high efficacy of stem cells, and it is known that the more the expression increases, the stronger the stem cell function and efficacy. Therefore, in order to further confirm whether the treatment with the experimental group induces the inflammation and immune regulation ability of the mesenchymal stem cells, an experiment was performed to confirm the expression of Galectin 1. After culturing stem cells as in Experimental Example 1, total RNA was isolated using TRIzol (Invitrogen), and then cDNA was synthesized from total RNA using PrimeScript™ reagent Kit with gDNA Eraser (TaKaRa) and qRT-PCR was performed. Using this, a change in the expression of Galectin 1, an indicator of stem cell efficacy, was confirmed, and the result is shown in FIG. 5.

For another experiment, the system named is TSG6 and IDO. Briefly: Concentration setting of IL-1β in MSC by expression of TSG6 and IDO. The conditions noted are these: treated in MSC. Here is the method:
IL-1β, IFN-α and vitamin B6 were selected as candidate substances, and concentrations for function-enhancing were set. When IL-1β was treated in MSC, it was confirmed that the lowest effective concentration capable of increasing the expression of TSG6 and IDO was 20 ng/ml, and this was set as the standard.

On to `Cc1ncc(CO)c(CO)c1O.Cl` [vitamin B6], for which the IDO expression change entry in experiment [1] is recorded as “did not show a distinct expression change”. For the same compound, in the experiment with IFN-γ, the “change in IFN-γ secretion compared to the untreated control group” value (“change in IFN-γ secretion” for short) was “not significant”. In addition, the “expression of ICOSL” value in experiment [2] is on record as “did not show a distinct increase”. For the same compound, the “expression of Galectin 1” value with Galectin 1 is recorded as “did not show a distinct increase”.
For interferon alpha (IFN-α), the “change in IFN-γ secretion” value with IFN-γ is on record as “not significant”. Moreover, the “expression of ICOSL” value in experiment [2] was “did not show a distinct increase”.
Consider Interleukin 1 beta (IL-1β), for which, in experiment [1], the IDO expression change result was “did not show a distinct expression change”. Further, in the experiment on IFN-γ, the “change in IFN-γ secretion” value is on record as “not significant”. For the same compound, the “expression of ICOSL” value in experiment [2] was “increased”. Further, in the experiment with Galectin 1, the “expression of Galectin 1” value is recorded as “increased”. Moreover, the “lowest effective concentration capable of increasing the expression of TSG6 and IDO” value with TSG6 and IDO stood at 20 ng/mL.
